Measurements reported in the supplement of paper PMC7840683.
Structures can show the parent of a compound that is named as a salt. ± gives the standard deviation of the averaged measurements.

Test system: HepaRG
Experiment: LDH release cytotoxicity, % of total lysis control; higher = more cytotoxic
Details: 48 h
Summary of the method: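 Duplicate wells of single-lot HepaRG cells, grown on collagen I-coated 96-well plates, received eight-point half-log series of test chemicals with 100 µM as the top concentration. Exposure lasted 48 h in serum-free induction medium with 0.5% DMSO, while total lysis wells received 0.1% Triton X. Resorufin fluorescence (CytoTox-ONE, Tecan Safire) was used to quantify LDH leaked into 50 µL of spent medium. Values for percent cytotoxicity were normalized to on-plate vehicle and total lysis controls and averaged across the duplicates.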

SMILES	LDH release cytotoxicity (0.03162 µM) [%]	LDH release cytotoxicity (0.1 µM) [%]	LDH release cytotoxicity (0.3162278 µM) [%]	LDH release cytotoxicity (1 µM) [%]	LDH release cytotoxicity (3.16228 µM) [%]	LDH release cytotoxicity (10 µM) [%]	LDH release cytotoxicity (31.6228 µM) [%]	LDH release cytotoxicity (100 µM) [%]	further results
COC(=O)N(OC)c1ccccc1COc1ccn(-c2ccc(Cl)cc2)n1 [Pyraclostrobin]	-1.44 ± 1.1	-1.43 ± 0.92	-1.17 ± 0.68	-2.24 ± 0.11	-1.81 ± 0.71	-0.283 ± 0.49	6.12 ± 1.7	56.9 ± 7.3	–
CCOC(=O)COc1cc(-c2nn(C)c(OC(F)F)c2Cl)c(F)cc1Cl [Pyraflufen-ethyl]	0.0981 ± 1.6	-2.14 ± 0.14	-0.894 ± 0.076	-0.96 ± 1.1	-1.01 ± 0.6	-0.751 ± 0.049	0.45 ± 0.72	1.13 ± 1.6	–
c1cc2ccc3cccc4ccc(c1)c2c34 [Pyrene]	0.277 ± 0.94	-1.34 ± 0.14	-1.54 ± 0.5	-0.813 ± 0.25	-0.783 ± 0.011	-0.0329 ± 0.0016	-0.764 ± 0.4	-0.178 ± 0.085	–
CC(C)(C)c1ccc(CSc2cnn(C(C)(C)C)c(=O)c2Cl)cc1 [Pyridaben]	-0.363 ± 1.1	-1.38 ± 0.78	-1.47 ± 1.4	-1.89 ± 1.1	17.6 ± 2.4	26.6 ± 3.7	26.9 ± 1.5	34.6 ± 7	–
Cc1ncc(CO)c(CO)c1O [Pyridoxine]	-3.02 ± 0.18	-2.28 ± 1.7	-2.33 ± 0.68	-2.01 ± 0.55	-2.69 ± 0.98	-2.47 ± 0.94	-2.46 ± 1.2	1.11 ± 0.51	–
CCc1nc(N)nc(N)c1-c1ccc(Cl)cc1 [Pyrimethamine]	-0.622 ± 0.53	-0.806 ± 0.47	0.238 ± 0.62	0.679 ± 0.29	1.89 ± 0.15	4.04 ± 0.17	2.08 ± 0.49	14.2 ± 0.59	–
Cc1cc(C)nc(Nc2ccccc2)n1 [Pyrimethanil]	-0.263 ± 0.12	-1.12 ± 0.91	-0.512 ± 0.19	-1.63 ± 0.11	-0.622 ± 0.45	-0.288 ± 0.51	0.157 ± 1.1	3.8 ± 1.4	–
CC(COc1ccc(Oc2ccccc2)cc1)Oc1ccccn1 (configuration not stated) [Pyriproxyfen]	–	-2.74 ± 1.2	–	-3 ± 0.73	-3.01 ± 0.27	-2.89 ± 0.094	-1.8 ± 0.12	1.18 ± 2.2	LDH release cytotoxicity (0.031623 µM): -1.46 ± 0.43%; LDH release cytotoxicity (0.316228 µM): -2.85 ± 0.24%
COc1cc(OC)nc(Sc2cccc(Cl)c2C(=O)O)n1 [Pyrithiobac-sodium]	-1.21 ± 0.15	-0.445 ± 0.51	-0.467 ± 0.22	-0.953 ± 0.39	-0.133 ± 0.53	0.758 ± 0.15	0.654 ± 0.062	2.53 ± 0.2	–
O=C1C(=O)C(c2ccc(O)c(O)c2)Oc2cc(O)cc(O)c21 (configuration not stated) [Quercetin]	-0.715 ± 0.19	-0.382 ± 0.42	-1.09 ± 0.51	-1.24 ± 0.47	-0.569 ± 0.57	-1.09 ± 0.29	-1.1 ± 0.47	10.6 ± 1.9	–
O=C(O)c1c(Cl)ccc2cc(Cl)cnc12 [Quinclorac]	-0.412 ± 0.14	-0.369 ± 0.069	-0.616 ± 0.54	-0.762 ± 0.34	-0.281 ± 0.41	-0.297 ± 0.37	0.046 ± 0.18	0.495 ± 0.038	–
c1ccc2ncccc2c1 [Quinoline]	-1.44 ± 0.36	0.113 ± 1.4	-0.853 ± 0.57	-1.155 ± 0.0096	0.144 ± 0.76	-1.28 ± 1.3	-0.47 ± 0.21	2.26 ± 1.6	–
Fc1ccc(Oc2ccnc3cc(Cl)cc(Cl)c23)cc1 [Quinoxyfen]	-0.928 ± 1.3	-1.42 ± 1.2	-1.39 ± 0.3	-0.911 ± 0.14	-1.44 ± 0.34	-0.367 ± 0.57	-0.837 ± 0.58	3.32 ± 2.2	–
CCOC(=O)C(C)Oc1ccc(Oc2cnc3cc(Cl)ccc3n2)cc1 (configuration not stated) [Quizalofop-ethyl]	–	–	–	–	–	–	–	–	LDH release cytotoxicity (0.0272 µM): -0.606 ± 1.1%; LDH release cytotoxicity (0.086 µM): -0.619 ± 0.15%; LDH release cytotoxicity (0.271956 µM): -0.991 ± 0.67%; LDH release cytotoxicity (0.86 µM): -1.42 ± 0.21%; LDH release cytotoxicity (2.71956 µM): -0.919 ± 0.39%; LDH release cytotoxicity (8.6 µM): -0.541 ± 0.075%; LDH release cytotoxicity (27.1956 µM): -0.469 ± 0.41%; LDH release cytotoxicity (86 µM): -0.0561 ± 0.018%
O=C(c1ccc(OCCN2CCCCC2)cc1)c1c(-c2ccc(O)cc2)sc2cc(O)ccc12 [Raloxifene hydrochloride]	-1.32 ± 0.65	-1.13 ± 1.1	-0.881 ± 0.13	-1.8 ± 0.23	-2.08 ± 1.1	-1.62 ± 0.17	-1.9 ± 0.18	73.39 ± 0.7	–
COC(=O)C1C2CC3c4[nH]c5cc(OC)ccc5c4CCN3CC2CC(OC(=O)c2cc(OC)c(OC)c(OC)c2)C1OC (configuration not stated) [Reserpine]	–	–	–	–	–	–	–	–	LDH release cytotoxicity (0.0267212 µM): -2.17 ± 0.63%; LDH release cytotoxicity (0.0845 µM): -2.63 ± 0.23%; LDH release cytotoxicity (0.267213 µM): -1.99 ± 0.45%; LDH release cytotoxicity (0.845 µM): -3.03 ± 0.42%; LDH release cytotoxicity (2.67212 µM): -1.69 ± 0.29%; LDH release cytotoxicity (8.45 µM): -1.52 ± 1.1%; LDH release cytotoxicity (26.7212 µM): 10.5 ± 0.66%; LDH release cytotoxicity (84.5 µM): 46.8 ± 0.67%
CC(C)=CC1C(C(=O)OCc2coc(Cc3ccccc3)c2)C1(C)C (configuration not stated) [Resmethrin]	-0.985 ± 0.042	-0.737 ± 0.31	-0.651 ± 0.22	-1.31 ± 0.019	-0.881 ± 0.065	-0.19 ± 0.24	-0.451 ± 0.58	0.209 ± 1.3	–
Oc1cccc(O)c1 [Resorcinol]	-0.658 ± 0.45	-1.17 ± 0.33	-0.864 ± 0.51	-1.17 ± 0.85	-2.41 ± 1	-0.6 ± 0.62	-0.357 ± 1.3	2.31 ± 0.55	–
CC(C=CC1=C(C)CCCC1(C)C)=CC=CC(C)=CCO [Retinol]	–	–	–	–	–	–	–	–	LDH release cytotoxicity (0.03305 µM): -0.586 ± 0.2%; LDH release cytotoxicity (0.1045 µM): -1.81 ± 0.0097%; LDH release cytotoxicity (0.330458 µM): -1.85 ± 0.047%; LDH release cytotoxicity (1.045 µM): -1.97 ± 0.1%; LDH release cytotoxicity (3.30458 µM): -2.34 ± 0.81%; LDH release cytotoxicity (10.45 µM): -1.67 ± 0.32%; LDH release cytotoxicity (33.0458 µM): -1.8 ± 0.11%; LDH release cytotoxicity (104.5 µM): -1.69 ± 0.67%
